From article PMC9610999, “Itraconazole-Induced Increases in Gilteritinib Exposure Are Mediated by CYP3A and OATP1B” (Molecules, 2022)
Read-outs that look alike come from different tables or passages of the source.

How the values were obtained:
[1] = Plasma pharmacokinetics of oral gilteritinib in mice, with or without itraconazole pretreatment; format: in vivo; settings: for Cmax / AUC(0-t): male, mouse, plasma, po, 10 mg/kg, gilteritinib 10 mg/kg p.o., mean (SD); for AUC(0-t): read-out: Gilteritinib AUC0–24h
From the text: Male and female CYP3A(−/−) mice and age- and sex-matched wild-type mice on an FVB/NTac (CYP3A(+/+)) background were bred in-house. Male OATP1B2(−/−) mice and age and sex-matched wild-type mice on a DBA1/lacJ (OATP1B2(+/+)) background were bred in-house. All mice were aged 8–16 weeks and weighed 18–30 g. Littermates of the same sex were housed in groups of five or fewer in a temperature- and light-controlled environment (12-h light/dark cycles) in cages lined with absorbent bedding. Mice were given free access to standard food and water. All breeding and experimental procedures were conducted with the approval of the University Laboratory Animal Resources Animal Care and Use Committee at The Ohio State University under protocol number 201500000101-R2.
For in vivo pharmacokinetic studies, mice were randomly divided into experimental groups of equal size. Gilteritinib powder was dissolved in 0.5% methylcellulose solution in distilled sterile water at a concentration of 2 mg/mL and was administered via oral gavage at a body weight normalized dose of 10 mg/kg. The dose of gilteritinib was chosen based on previous preclinical characterization of gilteritinib pharmacokinetics. Itraconazole powder was dissolved in a solvent comprised of 5% DMSO, 70% PEG300, and 25% distilled sterile water and administered orally at a dose of 100 mg/kg. The dose of itraconazole was based on previous work studying preclinical DDI with itraconazole. For combination treatments, itraconazole was always given 30 min prior to gilteritinib.
Pharmacokinetic studies were performed in accordance with a repeat sampling strategy described previously. After a single dose of gilteritinib, 20–40 μL of whole blood samples were collected from each mouse at time points ranging from 0.5–24 h after dosing. Samples procured during the first three time points were collected from the submaxillary vein using a sterile, disposable 4 mm or 5 mm Goldenrod animal blood lancet and collected into a glass micro-hematocrit heparinized capillary tube. For samples obtained at the fourth and fifth time points, the mice were sedated using 2% isoflurane and whole blood was obtained via the retro-orbital venous plexus. At the final time point, mice were euthanized via carbon dioxide inhalation, whole blood was collected by cardiac puncture with a needle and 1-mL syringe and transferred to a 1.5-mL heparinized tube. All samples were centrifuged at 13,000× g for 5 min and the plasma supernatant was transferred to a 0.5-mL tube, snap-frozen on dry ice, and stored at −80 °C until the day of analysis.
Pharmacokinetic parameters were estimated using non-compartmental analyses using Phoenix WinNonlin version 8.1 (Certara, Princeton, NJ, USA). Estimated measures of exposure included the peak plasma concentration (Cmax) and the area under the plasma concentration–time curve (AUC).

[2] = target: T1, OATP1B1 (Homo sapiens, UniProt Q9Y6L6); test: Competitive counterflow assay with ACE in OATP1B1 overexpressing HEK293 cells; format: cell-based; settings: gilteritinib 0.1–20 μM, 5 μM ACE, normalized to ACE alone
T1 construct: expressed in transfected cells; host or cells: HEK293
T1 sequence (Q9Y6L6 1-691): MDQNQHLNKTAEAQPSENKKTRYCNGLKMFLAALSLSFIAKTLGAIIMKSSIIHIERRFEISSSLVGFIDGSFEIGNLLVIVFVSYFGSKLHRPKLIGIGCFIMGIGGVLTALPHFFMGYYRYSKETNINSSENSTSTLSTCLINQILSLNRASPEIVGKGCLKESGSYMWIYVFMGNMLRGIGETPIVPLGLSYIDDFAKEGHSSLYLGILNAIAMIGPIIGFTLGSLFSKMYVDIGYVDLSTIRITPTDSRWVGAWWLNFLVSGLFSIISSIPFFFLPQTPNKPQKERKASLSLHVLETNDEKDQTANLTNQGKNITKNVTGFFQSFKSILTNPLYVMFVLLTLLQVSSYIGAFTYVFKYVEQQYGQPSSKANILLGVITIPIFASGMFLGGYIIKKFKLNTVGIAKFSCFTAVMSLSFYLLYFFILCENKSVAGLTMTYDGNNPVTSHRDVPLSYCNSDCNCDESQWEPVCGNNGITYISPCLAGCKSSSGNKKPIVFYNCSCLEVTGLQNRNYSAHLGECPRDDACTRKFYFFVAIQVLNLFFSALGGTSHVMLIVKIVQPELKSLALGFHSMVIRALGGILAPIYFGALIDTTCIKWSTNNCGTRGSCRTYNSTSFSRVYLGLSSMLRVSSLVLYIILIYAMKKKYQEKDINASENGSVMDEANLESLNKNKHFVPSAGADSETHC
Experimental: OATP1B1 overexpressing cells or vector control were seeded in 96-well plates in 200 μL DMEM and incubated for 24 h. The medium was aspirated off and the cells were washed three times with PBS at room temperature. The cells were then treated with 100 μL of 5 μM ACE and incubated at 37 °C for 15 min in uptake buffer. The supernatant was aspirated off and 100 μL of 5 μM ACE alone or in combination with DMSO or gilteritinib (0.1–20 μM) in uptake buffer were added to the cells. The plates were further incubated for 20 min at 37 °C. The supernatant was removed, and the cells were washed three times with 200 μL of ice-cold PBS. Lastly, 200 μL of 0.1 N NaOH was added to cells and incubated for 20 min at room temperature. Fluorescence was measured on a plate reader at excitation and emission wavelengths of 460 and 510 nm, respectively. The intracellular concentrations of ACE were calculated by comparison of fluorescence values observed with control samples incubated with ACE alone, which were set to 100%.

[3] = target: T1, OATP1B1; test: Washout assay: recovery of OATP1B1 function (EβG uptake); format: cell-based; settings: within a 1-h period after 15 min treatment with gilteritinib 15 µM; 0.2 μM EβG
Experimental: OATP1B1 overexpressing cells and vector control cells were plated in 12-well plates 24 h prior to experimentation. Cells were then washed with warm PBS and pre-incubated for 15 min with 0.5 mL DMSO or gilteritinib (15 μM) in DMEM at 37 °C. After pre-incubation, the supernatant was removed, and cells were washed with PBS. Compound-free medium was then added, and the cells were further incubated for periods of 15, 30, and 60 min. Next, the medium was removed, and cells were incubated with 0.5 mL of 0.2 μM EβG for 15 min. After that, the medium was removed and the cells were washed three times with ice-cold PBS, and 1 N NaOH was added to the wells to stop the rection. The next day 1 M HCL was added to each well and substrate concentrations were assessed using liquid scintillation counting. The resulting data were normalized to total protein as determined by a Pierce protein assay.

[4] = CYP3A(−/−) on FVB/NTac background, CYP3A(−/−) male mice, itraconazole 100 mg/kg 30 min before
[5] = CYP3A(−/−) on FVB/NTac background, CYP3A(−/−) male mice, no co-treatment
[6] = DBA/1J (wild-type), Wild-type DBA/1J male mice, no co-treatment
[7] = FVB (wild-type), Wild-type FVB male mice, itraconazole 100 mg/kg 30 min before
[8] = FVB (wild-type), Wild-type FVB male mice, no co-treatment
[9] = OATP1B2(−/−) on DBA1/lacJ background, OATP1B2(−/−) male mice, itraconazole 100 mg/kg 30 min before
[10] = OATP1B2(−/−) on DBA1/lacJ background, OATP1B2(−/−) male mice, no co-treatment, experiment compared with itraconazole co-treatment
[11] = OATP1B2(−/−) on DBA1/lacJ background, OATP1B2(−/−) male mice, no co-treatment, experiment compared with wild-type DBA/1J

In the case of `CCc1nc(C(N)=O)c(Nc2ccc(N3CCC(N4CCN(C)CC4)CC3)c(OC)c2)nc1NC1CCOCC1` [Gilteritinib], the “Gilteritinib AUC Fold Increase” value ([1]; CYP3A(−/−) mice, no co-treatment, vs. WT) is reported as 1.3 (vs. WT) fold, the “Gilteritinib AUC Fold Increase” value ([1]; CYP3A(−/−) mice, no co-treatment, vs. WT, listed as gilteritinib) is reported as 1.3 fold and the “Gilteritinib AUC Fold Increase” value ([1]; CYP3A(−/−) mice, with itraconazole 100 mg/kg vs. Vehicle) is reported as 0.97 (vs. Vehicle) fold. For the same molecule, the “Gilteritinib AUC Fold Increase” value ([1]; OATP1B2(−/−) mice, no co-treatment, vs. WT) was 1.4 (vs. WT) fold, the “Gilteritinib AUC Fold Increase” value ([1]; OATP1B2(−/−) mice, no co-treatment, vs. WT, listed as gilteritinib) was 1.4 fold and the “Gilteritinib AUC Fold Increase” value ([1]; OATP1B2(−/−) mice, with itraconazole 100 mg/kg vs. Vehicle) was 0.84 (vs. Vehicle) fold. The “Gilteritinib AUC Fold Increase” value ([1]; Wild-type FVB mice, with itraconazole 100 mg/kg vs. Vehicle) was 2.5 (vs. Vehicle) fold, the “Gilteritinib AUC Fold Increase” value ([1]; Wild-type FVB mice, with itraconazole 100 mg/kg vs. Vehicle, listed as gilteritinib) was “about 2.5 fold” and the Cmax [1, 4] was 430 ng/mL. It also gave an AUC(0-t) [1, 4] of 5840 ng·h/mL, a Cmax [1, 5] of 380 ng/mL and an AUC(0-t) [1, 5] of 5990 ng·h/mL. For the same molecule, the Cmax [1, 6] was 260 ng/mL, the AUC(0-t) [1, 6] was 4550 ng·h/mL and the Cmax [1, 7] was 960 ng/mL. For the same molecule, the AUC(0-t) [1, 7] was 11500 ng·h/mL, the Cmax [1, 8] was 310 ng/mL and the AUC(0-t) [1, 8] was 4650 ng·h/mL. The Cmax [1, 9] was 1350 ng/mL, the AUC(0-t) [1, 9] was 15000 ng·h/mL and the Cmax [1, 10] was 1430 ng/mL. The AUC(0-t) [1, 10] was 17800 ng·h/mL, the Cmax [1, 11] was 390 ng/mL and the AUC(0-t) [1, 11] was 6160 ng·h/mL. For the same molecule, the “Effect on fluorescent signal of ACE in cells (competitive counterflow; transported substrate)” value [2] was “decreased the fluorescent signal in cells in a concentration-dependent manner” and the “OATP1B1 transport recovered after washout” value [3] was 75%.
